# Laboratory results taken from ChEMBL document CHEMBL4673392, “Discovery of a Novel Series of Potent and Selective Alkynylthiazole-Derived PI3Kγ Inhibitors” (ACS Med Chem Lett, 2021).
# Legend:
# [1] = target: T1, Phosphatidylinositol 4,5-bisphosphate 3-kinase catalytic subunit gamma isoform (Homo sapiens, UniProt P48736); experiment: Inhibition of PI3Kgamma in human THP-1 cells assessed as reduction in Akt phosphorylation at Ser473 residue; assay type: cell-based
# [2] = target: T1, Phosphatidylinositol 4,5-bisphosphate 3-kinase catalytic subunit gamma isoform; experiment: Inhibition of PI3Kgamma (unknown origin) using PIP2 as substrate measured after 15 mins in presence of [33P]-ATP by liquid scintillation counting method
# [3] = target: Serine/threonine-protein kinase PLK1 (Homo sapiens, UniProt P53350); experiment: Inhibition of PLK1 (unknown origin)
# [4] = target: Tyrosine-protein kinase JAK2 (Homo sapiens, UniProt O60674); experiment: Inhibition of JAK2 (unknown origin)
# [5] = target: Vascular endothelial growth factor receptor 2 (Homo sapiens, UniProt P35968); experiment: Inhibition of KDR (unknown origin)
# [6] = target: T2, Receptor-type tyrosine-protein kinase FLT3 (Homo sapiens, UniProt P36888); experiment: Inhibition of FLT3 (unknown origin)
# T2 sequence (P36888 whole entry): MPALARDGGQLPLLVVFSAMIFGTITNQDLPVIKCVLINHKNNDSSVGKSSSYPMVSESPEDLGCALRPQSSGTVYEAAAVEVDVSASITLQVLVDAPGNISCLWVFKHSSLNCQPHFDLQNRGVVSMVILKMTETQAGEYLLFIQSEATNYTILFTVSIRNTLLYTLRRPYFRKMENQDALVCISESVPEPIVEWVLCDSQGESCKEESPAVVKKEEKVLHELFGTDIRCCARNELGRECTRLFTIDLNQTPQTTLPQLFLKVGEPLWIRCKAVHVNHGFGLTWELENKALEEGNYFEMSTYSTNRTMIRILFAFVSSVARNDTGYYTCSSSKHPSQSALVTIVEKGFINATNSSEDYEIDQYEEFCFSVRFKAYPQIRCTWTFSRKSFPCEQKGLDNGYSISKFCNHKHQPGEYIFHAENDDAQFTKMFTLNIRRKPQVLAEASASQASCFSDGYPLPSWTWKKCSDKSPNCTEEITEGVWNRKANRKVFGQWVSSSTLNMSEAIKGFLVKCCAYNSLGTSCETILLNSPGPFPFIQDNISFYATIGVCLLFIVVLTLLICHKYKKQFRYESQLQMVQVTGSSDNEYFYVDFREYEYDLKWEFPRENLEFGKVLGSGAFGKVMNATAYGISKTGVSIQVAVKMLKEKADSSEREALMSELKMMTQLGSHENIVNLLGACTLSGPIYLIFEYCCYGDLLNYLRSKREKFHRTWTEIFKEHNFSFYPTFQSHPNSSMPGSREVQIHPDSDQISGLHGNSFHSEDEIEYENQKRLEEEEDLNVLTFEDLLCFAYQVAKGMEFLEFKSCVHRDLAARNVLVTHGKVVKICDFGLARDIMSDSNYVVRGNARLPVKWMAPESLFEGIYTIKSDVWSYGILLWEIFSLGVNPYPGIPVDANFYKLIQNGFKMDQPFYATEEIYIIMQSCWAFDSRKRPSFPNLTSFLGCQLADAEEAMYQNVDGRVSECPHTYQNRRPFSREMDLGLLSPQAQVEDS
# [7] = target: Tyrosine-protein kinase SYK (Homo sapiens, UniProt P43405); experiment: Inhibition of SYK (unknown origin)
# [8] = target: Cyclin-dependent kinase 2 (Homo sapiens, UniProt P24941); experiment: Inhibition of CDK2 (unknown origin)
# [9] = target: Glycogen synthase kinase-3 beta (Homo sapiens, UniProt P49841); experiment: Inhibition of GSK3B (unknown origin)
# [10] = target: Mitogen-activated protein kinase 10 (Homo sapiens, UniProt P53779); experiment: Inhibition of JNK3 (unknown origin)
# [11] = target: Proto-oncogene tyrosine-protein kinase Src (Homo sapiens, UniProt P12931); experiment: Inhibition of SRC (unknown origin)
# [12] = target: T3, Interleukin-1 receptor-associated kinase 4 (Homo sapiens, UniProt Q9NWZ3); experiment: Inhibition of IRAK4 (unknown origin)
# T3 sequence (Q9NWZ3 whole entry): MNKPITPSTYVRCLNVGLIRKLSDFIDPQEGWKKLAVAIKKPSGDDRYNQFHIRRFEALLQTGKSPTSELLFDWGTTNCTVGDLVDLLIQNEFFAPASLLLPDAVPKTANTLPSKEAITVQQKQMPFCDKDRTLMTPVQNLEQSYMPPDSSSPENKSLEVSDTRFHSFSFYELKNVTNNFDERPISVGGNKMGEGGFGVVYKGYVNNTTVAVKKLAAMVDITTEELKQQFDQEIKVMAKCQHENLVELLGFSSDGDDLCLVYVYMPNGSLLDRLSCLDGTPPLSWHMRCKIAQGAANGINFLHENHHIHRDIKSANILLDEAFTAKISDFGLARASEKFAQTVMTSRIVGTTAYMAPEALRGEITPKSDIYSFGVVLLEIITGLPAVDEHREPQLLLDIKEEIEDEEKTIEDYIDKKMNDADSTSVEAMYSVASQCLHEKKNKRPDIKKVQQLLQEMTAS
# Mus musculus = experiment: Antiinflammatory activity against Balb/c mouse air pouch model assessed as decrease in IL-8 stimulated neutrophil recruitment in air pouch at 50 mg/kg, po treated for 1 hr prior to IL-8 administration and measured after 4 hrs by FACS analysis; assay type: functional; settings: time 5 hrs
# [13] = target: Rho-associated protein kinase 1 (Homo sapiens, UniProt Q13464); experiment: Inhibition of ROCK1 (unknown origin)
# [14] = target: Phosphatidylinositol 4,5-bisphosphate 3-kinase catalytic subunit alpha isoform (Homo sapiens, UniProt P42336); experiment: Inhibition of PI3Kalpha (unknown origin) using PIP2 as substrate measured after 15 mins in presence of [33P]-ATP by liquid scintillation counting method
# Sequence of Serine/threonine-protein kinase PLK1 (P53350 whole entry): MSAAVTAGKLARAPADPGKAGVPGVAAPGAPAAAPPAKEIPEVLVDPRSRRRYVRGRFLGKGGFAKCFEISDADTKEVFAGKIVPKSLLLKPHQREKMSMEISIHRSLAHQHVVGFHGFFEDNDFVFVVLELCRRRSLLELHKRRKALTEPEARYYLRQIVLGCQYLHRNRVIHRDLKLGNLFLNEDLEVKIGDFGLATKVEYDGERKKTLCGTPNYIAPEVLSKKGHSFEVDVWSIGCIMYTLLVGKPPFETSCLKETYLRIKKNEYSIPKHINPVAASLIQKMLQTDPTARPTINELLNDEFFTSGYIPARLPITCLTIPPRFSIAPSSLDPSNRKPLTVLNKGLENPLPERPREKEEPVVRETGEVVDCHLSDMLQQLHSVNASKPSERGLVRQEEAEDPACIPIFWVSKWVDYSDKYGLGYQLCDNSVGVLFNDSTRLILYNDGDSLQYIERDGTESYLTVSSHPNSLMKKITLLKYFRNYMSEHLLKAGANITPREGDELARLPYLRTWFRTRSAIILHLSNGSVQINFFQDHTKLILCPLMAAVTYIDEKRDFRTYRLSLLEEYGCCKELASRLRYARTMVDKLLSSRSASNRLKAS
# Sequence of Proto-oncogene tyrosine-protein kinase Src (P12931 2-536 limits assumed): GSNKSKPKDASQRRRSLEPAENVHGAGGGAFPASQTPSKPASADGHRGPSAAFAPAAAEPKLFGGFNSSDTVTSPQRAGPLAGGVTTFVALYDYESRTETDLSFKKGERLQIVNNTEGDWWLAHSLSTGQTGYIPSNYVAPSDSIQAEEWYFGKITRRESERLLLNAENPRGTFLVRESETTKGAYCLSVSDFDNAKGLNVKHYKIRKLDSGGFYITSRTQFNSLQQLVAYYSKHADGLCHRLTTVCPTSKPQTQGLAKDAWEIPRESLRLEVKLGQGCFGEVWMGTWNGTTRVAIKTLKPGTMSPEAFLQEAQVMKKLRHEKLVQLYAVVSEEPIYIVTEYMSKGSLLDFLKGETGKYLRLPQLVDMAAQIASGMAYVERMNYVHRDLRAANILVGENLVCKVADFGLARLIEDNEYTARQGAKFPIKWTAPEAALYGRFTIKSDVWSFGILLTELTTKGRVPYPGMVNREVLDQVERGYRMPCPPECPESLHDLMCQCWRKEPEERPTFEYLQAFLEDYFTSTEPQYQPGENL
# T1 sequence (P48736 whole entry, canonical isoform): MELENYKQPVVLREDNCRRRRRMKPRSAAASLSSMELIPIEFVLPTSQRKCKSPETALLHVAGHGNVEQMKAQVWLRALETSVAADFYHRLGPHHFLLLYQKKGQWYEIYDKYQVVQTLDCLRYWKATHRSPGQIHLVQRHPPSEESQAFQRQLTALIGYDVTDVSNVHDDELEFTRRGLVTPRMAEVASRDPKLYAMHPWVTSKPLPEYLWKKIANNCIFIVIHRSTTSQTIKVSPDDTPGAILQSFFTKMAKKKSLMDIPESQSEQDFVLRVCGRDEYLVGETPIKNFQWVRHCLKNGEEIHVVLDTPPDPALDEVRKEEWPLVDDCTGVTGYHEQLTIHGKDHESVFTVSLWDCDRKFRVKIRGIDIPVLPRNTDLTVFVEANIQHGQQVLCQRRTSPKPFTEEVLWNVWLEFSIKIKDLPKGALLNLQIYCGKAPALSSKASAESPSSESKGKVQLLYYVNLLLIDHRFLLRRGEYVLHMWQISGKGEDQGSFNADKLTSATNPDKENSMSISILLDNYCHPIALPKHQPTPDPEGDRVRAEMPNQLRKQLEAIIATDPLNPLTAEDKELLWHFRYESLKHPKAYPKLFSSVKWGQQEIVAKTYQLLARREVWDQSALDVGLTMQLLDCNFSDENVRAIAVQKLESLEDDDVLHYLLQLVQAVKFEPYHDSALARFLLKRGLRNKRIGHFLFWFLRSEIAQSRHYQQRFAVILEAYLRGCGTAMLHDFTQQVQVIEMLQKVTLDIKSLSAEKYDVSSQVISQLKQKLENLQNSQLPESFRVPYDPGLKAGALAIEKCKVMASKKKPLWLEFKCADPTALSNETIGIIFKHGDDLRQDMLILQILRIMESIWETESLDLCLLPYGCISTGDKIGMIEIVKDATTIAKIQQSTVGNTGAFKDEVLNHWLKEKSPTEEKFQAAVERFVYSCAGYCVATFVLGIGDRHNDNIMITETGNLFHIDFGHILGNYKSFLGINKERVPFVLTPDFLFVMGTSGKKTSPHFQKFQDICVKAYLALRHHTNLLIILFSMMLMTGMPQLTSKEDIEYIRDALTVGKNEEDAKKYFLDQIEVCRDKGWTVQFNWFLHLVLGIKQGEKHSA
# Sequence of Tyrosine-protein kinase JAK2 (O60674 whole entry): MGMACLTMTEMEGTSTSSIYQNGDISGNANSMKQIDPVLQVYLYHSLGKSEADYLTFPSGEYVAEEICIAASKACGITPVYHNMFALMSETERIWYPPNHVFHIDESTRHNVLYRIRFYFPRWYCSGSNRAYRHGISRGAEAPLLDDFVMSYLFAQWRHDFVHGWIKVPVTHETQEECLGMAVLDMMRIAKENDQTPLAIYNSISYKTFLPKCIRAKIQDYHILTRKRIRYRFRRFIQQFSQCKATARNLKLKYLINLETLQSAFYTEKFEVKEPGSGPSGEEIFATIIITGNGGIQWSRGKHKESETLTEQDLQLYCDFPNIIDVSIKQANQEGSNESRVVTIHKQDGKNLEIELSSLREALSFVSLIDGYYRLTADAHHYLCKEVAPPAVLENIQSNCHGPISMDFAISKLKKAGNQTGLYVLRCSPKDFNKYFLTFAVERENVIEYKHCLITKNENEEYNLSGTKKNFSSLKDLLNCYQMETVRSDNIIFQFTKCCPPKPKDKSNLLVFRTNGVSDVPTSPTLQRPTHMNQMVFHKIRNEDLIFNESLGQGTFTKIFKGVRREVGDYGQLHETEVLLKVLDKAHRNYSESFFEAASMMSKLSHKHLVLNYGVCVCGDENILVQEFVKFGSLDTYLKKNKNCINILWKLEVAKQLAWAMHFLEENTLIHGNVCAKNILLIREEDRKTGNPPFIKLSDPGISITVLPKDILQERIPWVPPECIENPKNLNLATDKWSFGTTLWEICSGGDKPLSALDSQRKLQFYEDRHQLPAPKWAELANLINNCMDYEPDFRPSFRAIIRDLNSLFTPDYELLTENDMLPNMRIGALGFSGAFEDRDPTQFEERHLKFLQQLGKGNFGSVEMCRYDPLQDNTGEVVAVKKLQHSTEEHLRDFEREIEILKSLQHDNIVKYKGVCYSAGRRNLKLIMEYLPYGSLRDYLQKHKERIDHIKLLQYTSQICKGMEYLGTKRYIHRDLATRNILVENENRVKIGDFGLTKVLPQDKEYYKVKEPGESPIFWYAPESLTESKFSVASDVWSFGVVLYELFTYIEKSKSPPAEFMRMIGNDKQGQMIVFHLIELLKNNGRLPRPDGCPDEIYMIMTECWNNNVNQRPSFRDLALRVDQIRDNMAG
# Sequence of Rho-associated protein kinase 1 (Q13464 whole entry, canonical isoform): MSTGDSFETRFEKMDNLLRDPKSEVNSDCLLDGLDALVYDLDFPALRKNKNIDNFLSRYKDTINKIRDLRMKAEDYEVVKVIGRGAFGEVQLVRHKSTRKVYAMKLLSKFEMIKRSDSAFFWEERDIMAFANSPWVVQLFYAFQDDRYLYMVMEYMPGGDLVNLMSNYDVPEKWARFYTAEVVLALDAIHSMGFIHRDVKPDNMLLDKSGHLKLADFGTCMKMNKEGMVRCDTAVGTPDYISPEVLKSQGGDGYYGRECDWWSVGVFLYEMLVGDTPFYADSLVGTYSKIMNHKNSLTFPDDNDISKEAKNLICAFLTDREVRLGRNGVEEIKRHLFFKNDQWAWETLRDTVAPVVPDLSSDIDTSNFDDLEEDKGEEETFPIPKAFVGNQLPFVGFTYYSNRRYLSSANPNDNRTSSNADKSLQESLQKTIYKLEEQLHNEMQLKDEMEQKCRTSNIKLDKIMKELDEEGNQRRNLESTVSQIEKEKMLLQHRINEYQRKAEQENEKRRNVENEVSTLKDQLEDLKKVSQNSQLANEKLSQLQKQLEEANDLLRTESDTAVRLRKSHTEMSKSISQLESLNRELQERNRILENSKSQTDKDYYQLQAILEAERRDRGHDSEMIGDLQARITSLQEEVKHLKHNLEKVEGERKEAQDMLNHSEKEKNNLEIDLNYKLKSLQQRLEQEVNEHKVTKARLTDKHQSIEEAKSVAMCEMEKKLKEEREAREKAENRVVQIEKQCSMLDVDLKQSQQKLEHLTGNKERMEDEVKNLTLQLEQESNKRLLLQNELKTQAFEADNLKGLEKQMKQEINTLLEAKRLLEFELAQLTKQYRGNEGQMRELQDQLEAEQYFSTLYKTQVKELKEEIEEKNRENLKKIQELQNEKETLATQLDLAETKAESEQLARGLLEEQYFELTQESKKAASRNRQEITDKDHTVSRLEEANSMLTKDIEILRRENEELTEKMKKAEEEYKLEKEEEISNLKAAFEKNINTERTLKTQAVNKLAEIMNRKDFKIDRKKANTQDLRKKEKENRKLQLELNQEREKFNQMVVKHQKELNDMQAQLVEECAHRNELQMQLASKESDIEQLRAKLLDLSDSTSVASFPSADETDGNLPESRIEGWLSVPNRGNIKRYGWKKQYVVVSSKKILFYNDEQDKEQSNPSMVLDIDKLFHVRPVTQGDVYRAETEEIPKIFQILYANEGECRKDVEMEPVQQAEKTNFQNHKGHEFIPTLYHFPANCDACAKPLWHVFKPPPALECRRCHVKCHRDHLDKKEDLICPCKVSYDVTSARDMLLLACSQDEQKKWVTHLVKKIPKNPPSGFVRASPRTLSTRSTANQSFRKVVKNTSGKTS
IC50 [1],Ki [2],Ki [3],Ki [4],Ki [5],Ki [6],Ki [7],Ki [8],Ki [9],Ki [10],Ki [11],Ki [12],Ki [13],Ki [14],SMILES,inhibition in vivo at 50 mg/kg (Mus musculus)
0.76 µM,0.043 µM,–,–,–,–,–,–,–,–,–,–,–,–,COCCNC(=O)Nc1nc(C)c(C#Cc2ccncc2)s1,–
0.23 µM,0.006 µM,–,–,–,–,–,–,–,–,–,–,–,–,CCCOCCNC(=O)Nc1nc(C)c(C#Cc2ccncc2)s1,–
> 10 µM,0.045 µM,–,–,–,–,–,–,–,–,–,–,–,–,Cc1nc(NC(=O)NCCOCC2CC2)sc1C#Cc1cnc2ncccc2c1,–
0.56 µM,0.042 µM,–,–,–,–,–,–,–,–,–,–,–,–,CCOCCNC(=O)Nc1nc(C)c(C#Cc2ccncc2)s1,–
0.18 µM,0.003 µM,> 4 µM,> 4 µM,> 4 µM,> 4 µM,> 4 µM,> 4 µM,> 4 µM,> 4 µM,> 4 µM,> 4 µM,> 4 µM,–,COc1cc(C#Cc2sc(NC(=O)NCCOCC3CC3)nc2C)cnc1OC,85%
0.29 µM,0.006 µM,–,–,–,–,–,–,–,–,–,–,–,–,Cc1nc(NC(=O)NCCOCC2CC2)sc1C#Cc1ccnc2ccccc12,–
–,–,> 4 µM,> 4 µM,> 4 µM,> 4 µM,> 4 µM,> 4 µM,> 4 µM,> 4 µM,> 4 µM,> 4 µM,> 4 µM,–,Cc1nc(NC(=O)NCCOCC2CC2)sc1C#Cc1ccc2cncn2c1,–
0.13 µM,0.004 µM,> 4 µM,> 4 µM,> 4 µM,> 4 µM,> 4 µM,> 4 µM,> 4 µM,> 4 µM,> 4 µM,> 4 µM,> 4 µM,0.252 µM,Cc1nc(NC(=O)NCCc2cn(CC(F)F)cn2)sc1C#Cc1cccnc1,–
0.49 µM,0.006 µM,–,–,–,–,–,–,–,–,–,–,–,–,Cc1nc(NC(=O)NCCOCC2CC2)sc1C#Cc1ccnc(F)c1,–
